Experiments:
Assay type in all cases: cell-based, human
MCF7, NCI-H460, SF-268 = assay: NCI three cell-line test, all three cell lines; details: one concentration tested (1×10^−4 Molar)
Description: (§1) The testing in this Example was performed by NCI, as per their 3-cell line panel test. The results are reported as the percent of the growth of the treated cells compared to the untreated control cells. The criterion for being an effective compound and for being subjected to further testing is that the tested compound reduce the growth of any one of the three cell lines to approximately 32% or less.
(§2) The methods for conducting the test are described below in Example 3, except that the cells were exposed to a single concentration of MT103, at 1×10^−4 Molar, and colorimetric determinations were made with alamar blue (Biotechniques 21(5):780-782 (1996)).
Methodology: The NCI conducted a test of the MT103 drug against 60 human cell lines, with a minimum of five concentrations of MT103 at 10-fold dilutions. […]
(§3) Following drug addition, the plates were incubated for an additional 48 h at 37° C., 5% CO2, 95% air, and 100% relative humidity. […] Bound stain was subsequently solubilized with 10 mM trizma base, and the absorbance was read on an automated plate reader at a wavelength of 515 nm. […] Using the seven absorbance measurements (time zero, (Tz), control growth, (C), and test growth in the presence of drug at the five concentration levels (Ti)), the percentage growth was calculated at each of the drug concentrations levels. Percentage growth inhibition was calculated as: […]

HOP-92 = assay: Anchorage-independent colony-forming assay; details: for % Inhibition: colonies Day 14
Description: (§4) Testing was conducted employing standard tissue culture techniques and an anchorage-independent colony-forming assay.
(§5) MT103 was tested against the lung carcinoma cell lines NCI-H226, NCI-H522, and HOP-92. An anchorage-independent colony-forming assay was employed. For the experiment, the cells were harvested, centrifuged to remove the media, and suspended in Iscove's Modified Dulbecco's Medium (IMDM). Samples were taken to determine cell density. The cell count was determined with a Coulter Model Z1 cell counter and viability was measured with propidium iodide staining followed by analysis on a Coulter EPICS XL flow cytometer. Each cell line was plated at 1×10^5 cells per dish (35 mm) in IMDM with 20% FBS and 1% methylcellulose containing the appropriate concentration of test compound or DMSO control. Five concentrations of each compound and a DMSO control were tested in each of the three cell lines. The colonies per plate were counted on Day 14 after the initiation of treatment. The cell lines were propagated under sterile conditions and incubated at 37° C. in HEPA-filtered CO2 tissue culture incubators with 5% CO2 and 95% humidity. The cell line was subcultured weekly to bi-weekly and used in experiments. The test compounds were kept refrigerated under light protected conditions until dissolved in DMSO.
(§6) Anticellular effects of the compounds on the tumor line were assessed with a colony-forming assay. Briefly, cell were harvested and adjusted to 3×10^6 viable cells/mL in IMDM. Compounds (200×) were prepared in DMSO and serially diluted in DMSO to give appropriate testing concentrations. Cells (100 μL), compound or DMSO control (16.5 μL) and IMDM (183.5 μL) were added to the appropriate assay tubes (12×75 mm) containing 3 mL of complete media, IMDM with 20% FBS and 1% methylcellulose. Tubes were then vortexed and 1.1 mL of the cell suspension was added to each of two 35 mm dishes. These dishes were then incubated for 14 days in HEPA-filtered CO2 tissue culture incubators with 5% CO2 and 95% humidity. The colonies in each dish were then counted and the duplicates were averaged and reported

NCI-H226 = assay: Anchorage-independent colony-forming assay; details: for % Inhibition: colonies Day 14
Description: as §4, §5, §6

NCI-H522 = assay: Anchorage-independent colony-forming assay; details: for % Inhibition: colonies Day 14
Description: as §4, §5, §6

[1] = test system: SF-268 Cell Line (Central Nervous System); assay: NCI three cell-line test; details: 1(10^−4) Molar in growth medium, percent of growth of untreated control cells
Description: as §1, §2
(§7) Methodology: The NCI conducted a test of the MT103 drug against 60 human cell lines, with a minimum of five concentrations of MT103 at 10-fold dilutions. A 48 hour continuous drug exposure was used, and a sulforhodamine B (SRB) protein assay was used to estimate cell viability and growth. The human tumor cell lines of the cancer screening panel were grown in RPMI 1640 medium containing 5% fetal bovine serum and 2 mM L-glutamine. Cells were inoculated into 96 well microtiter plates in 100 μL at plating densities ranging from 5,000 to 40,000 cells/well depending on the doubling time of individual cell lines. After cell inoculation, the microtiter plates are incubated at 37° C., 5% CO2, 95% air, and 100% relative humidity for 24 h prior to addition of experimental drugs. […]
as §3

[2] = test system: NCI-H460 Cell Line (Non-Small cell Lung); assay: NCI three cell-line test; details: 1(10^−4) Molar in growth medium, percent of growth of untreated control cells
Description: as §1, §2, §7, §3

[3] = test system: MCF7 Cell line (Breast Cancer); assay: NCI three cell-line test; details: 1(10^−4) Molar in growth medium, percent of growth of untreated control cells
Description: as §1, §2, §7, §3

SMILES: CC1(C)C2CC[C@@]1(CS(=O)(=O)N(C1CCCCC1)C1CCCCC1)C(O)C2 (stereo partly shown) [MT103]
- growth of all three cell lines (MCF7, NCI-H460, SF-268): ≤ 16%
- IC50 (HOP-92; HOP-92, colony-forming assay): 24.2 µM
- % Inhibition (HOP-92; HOP-92, 0.8 μM): 0%
- % Inhibition (HOP-92; HOP-92, 4 μM): 0%
- % Inhibition (HOP-92; HOP-92, 20 μM): 43.3%
- % Inhibition (HOP-92; HOP-92, 100 μM): 100%
- % Inhibition (HOP-92; HOP-92, 500 μM): 100%
- −logGI50 value (HOP-92; HOP-92, see Table 5): 4.6
- IC50 (NCI-H226; NCI-H226, colony-forming assay): 8.39 µM
- % Inhibition (NCI-H226; NCI-H226, 0.8 μM): 3.1%
- % Inhibition (NCI-H226; NCI-H226, 4 μM): 36.7%
- % Inhibition (NCI-H226; NCI-H226, 20 μM): 65.6%
- % Inhibition (NCI-H226; NCI-H226, 100 μM): 92.2%
- % Inhibition (NCI-H226; NCI-H226, 500 μM): 99.7%
- −logGI50 value (NCI-H226; NCI-H226, see Table 5): 5.1
- IC50 (NCI-H522; NCI-H522, colony-forming assay): 81.7 µM
- % Inhibition (NCI-H522; NCI-H522, 0.8 μM): 0%
- % Inhibition (NCI-H522; NCI-H522, 4 μM): 0%
- % Inhibition (NCI-H522; NCI-H522, 20 μM): 0%
- % Inhibition (NCI-H522; NCI-H522, 100 μM): 57.2%
- % Inhibition (NCI-H522; NCI-H522, 500 μM): 100%
- −logGI50 value (NCI-H522; NCI-H522, see Table 5): 4.1
- Growth, Percentage [1]: 14%
- Growth, Percentage [2]: 16%
- Growth, Percentage [3]: 0%

From patent US20040266732A1, “Therapeutic agents, methods, and treatments” (priority 2002, published 2004)
